Results as given in patent US8222218B2, “Cyclopropanated carbohydrates” (Seton Hall University, priority 2008, dated 2012).
Where two headings read alike, the source gives them in different places.

What was measured:
[1] = tested on: metabotropic glutamate receptors; conditions: background; cited from earlier work
[2] = background, previously made and tested; cited from earlier work
MES-induced seizures = assay: Maximal Electroshock Seizure (MES) test, mice; assay type: in vivo; conditions: Mus musculus, ip, mice, i.p.
Outline: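 Seizures were induced by a 60 Hz corneal current for 2 s (50 mA in CF1 mice, 150 mA in Sprague-Dawley rats). Mice received 30, 100 or 300 mg/kg i.p. in 0.5% methylcellulose and were tested at several intervals; rats received 30 mg/kg p.o. Protection means abolition of hind-limb tonic extension.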

[3] = tested on: metrazole-induced clonic seizures; assay: Subcutaneous Metrazole Seizure Threshold Test (scMET), mice; assay type: in vivo; conditions: Mus musculus, sc, mice
Outline: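 CF1 mice dosed with test compound at 30, 100 and 300 mg/kg; Sprague-Dawley rats at 50 mg/kg p.o. At compound TPE, metrazole at CD97 (85 mg/kg in mice) injected s.c. in the neck. Animals observed 30 min; endpoint is a 3-5 s clonic spasm episode.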

[4] = Acute toxicity, minimal motor impairment (rotorod), mice; assay type: in vivo; conditions: mice, rotorod
Outline: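 Mice placed on a rod rotating at 6 rpm; a compound is scored toxic when the animal falls off three times within 1 min. In rats, minimal motor deficit is scored as ataxia, an abnormal uncoordinated gait.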

[5] = target: T1, cloned, human D1 receptor (Homo sapiens, UniProt P21728); assay: Radioligand competition binding assay, [3H]SCH23390
T1 construct: expressed in transfected cells
T1 sequence (P21728 whole entry): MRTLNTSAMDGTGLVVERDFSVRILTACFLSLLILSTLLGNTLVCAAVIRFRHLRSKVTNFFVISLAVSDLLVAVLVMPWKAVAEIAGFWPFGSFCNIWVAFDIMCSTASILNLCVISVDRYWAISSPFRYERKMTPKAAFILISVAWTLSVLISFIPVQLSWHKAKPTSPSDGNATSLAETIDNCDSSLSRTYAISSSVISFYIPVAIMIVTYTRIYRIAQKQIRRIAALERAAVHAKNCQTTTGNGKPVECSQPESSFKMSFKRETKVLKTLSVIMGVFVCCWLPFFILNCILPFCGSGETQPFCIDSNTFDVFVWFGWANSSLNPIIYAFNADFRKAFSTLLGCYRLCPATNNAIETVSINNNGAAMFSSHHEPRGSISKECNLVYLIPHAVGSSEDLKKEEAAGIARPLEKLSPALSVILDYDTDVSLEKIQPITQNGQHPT
Description: Receptor binding profiles were provided by the National Institute of Mental Health's Psychoactive Drug Screening Program, Contract # N01 MH32004 (NIMH PDSP) The NIMH PDSP is directed by Bryan L. Roth M. D., Ph.D. at the University of North Carolina at Chapel Hill and Project Officer Jamie Driscol at NIMH, Bethesda Md., USA. Protocols for receptor-based assays by the PDSP may be found on the website: http://pdsp.med.unc.edu/pdspw/binding.php and http://pdsp.med.unc.edu/pdspw/function.php (Apr. 30, 2008).
Radioligand competition binding assays were performed as previously described (Rothman, R. B., Baumann, M. H., Savage, J. E., Rauser, L., McBride, Hufeisen, S. J., Roth B. L. Circulation (2000) 102:2836-2841) for Compounds 7 and 16. Briefly, test compounds were dissolved to 10 mM in 100% DMSO, then diluted to the desired concentrations (spanning seven orders of magnitude) in Dopamine Binding Buffer (50 mM NaCl, 50 mM HEPES, 5 mM MgCl2, 0.5 mM EDTA, pH 7.4). Diluted test and reference compounds were added to wells containing radioligand ([^3H]SCH23390, 0.3 nM final concentration) and buffer, then membrane fractions from cells stably expressing cloned, human D1 or D5 receptors were added and binding was allowed to equilibrate at room temperature for 1.5 hours. At equilibrium, reactions were filtered (using a FilterMate 96-well harvester, PerkinElmer) onto GF-A glass fiber filters (Wallac) and allowed to dry. Meltilex scintillant (Wallac) was melted onto the dry filters, and then allowed to cool. Filters were then sealed in plastic bags and counted on a Wallac TriLux microbeta counter.
Raw data (dpm) representing total radioligand binding (i.e., specific+non-specific binding) were plotted as a function of the logarithm of the molar concentration of the competitor (i.e., test or reference compound). Non-linear regression of the normalized (i.e., percent radioligand binding compared to that observed in the absence of test or reference compound) raw data is performed in Prism 4.0 (GraphPad Software) using the built-in three parameter logistic model describing ligand competition binding to radioligand-labeled sites: y=bottom+[(top−bottom)/(1+10^x−logIC50)] where bottom equals the residual radioligand binding measured in the presence of 10 μM reference compound (i.e., non-specific binding) and top equals the total radioligand binding observed in the absence of competitor. The log IC50 (i.e., the log of the ligand concentration that reduces radioligand binding by 50%) is thus estimated from the data and used to obtain the Ki by applying the Cheng-Prusoff approximation: Ki=IC50/(1+[ligand]/KD) where [ligand] equals the assay radioligand concentration and KD equals the affinity constant of the radioligand for the target receptor.

Compound: 7-(hydroxyimino)cyclopropa[b]chromen-1a-carboxylate [Compound C]
- agonist activity at metabotropic glutamate receptors [1]: active agonists

Compound: CNS(=O)(=O)OC[C@@]12OC[C@H]3OC(C)(C)O[C@H]3[C@@H]1OC(C)(C)O2 [A]
- anticonvulsant activity [2]: moderate anticonvulsant activity

Compound: CC1(C)OC[C@@H]2O[C@@]3(COS(N)(=O)=O)OC(C)(C)O[C@H]3[C@@H]2O1 [B]
- anticonvulsant activity [2]: moderate anticonvulsant activity

Compound: CCOC(=O)C1[C@H]2O[C@@H]3COC(C)(C)O[C@H]3C(=NO)[C@@H]12 (stereo partly drawn) [Compound 7, ethyl (4aR,5aS,6aR,7aS)-7-(hydroxyimino)-2,2-dimethylhexahydro-4H-cyclopropa[5,6]pyrano[3,2-d][1,3]dioxine-6-carboxylate]
- responders at 30 mg/kg (MES-induced seizures; 0.5 h, read-out: MES 30 0.5 h (animals protected/tested)): 0%
- responders at 30 mg/kg (MES-induced seizures; 4 h, read-out: MES 30 4 h (animals protected/tested)): 0%
- responders at 100 mg/kg (MES-induced seizures; 0.5 h, read-out: MES 100 0.5 h (animals protected/tested)): 0%
- responders at 100 mg/kg (MES-induced seizures; 4 h, read-out: MES 100 4 h (animals protected/tested)): 0%
- responders at 300 mg/kg (MES-induced seizures; 0.5 h, read-out: MES 300 0.5 h (animals protected/tested)): 0%
- responders at 300 mg/kg (MES-induced seizures; 4 h, read-out: MES 300 4 h (animals protected/tested)): 0%
- responders at 30 mg/kg ([3]; 0.4 h, read-out: scMET 30 0.4 h (animals protected/tested)): 0%
- responders at 30 mg/kg ([3]; 0.5 h, read-out: scMET 30 0.5 h (animals protected/tested)): 0%
- responders at 100 mg/kg ([3]; 0.4 h, read-out: scMET 100 0.4 h (animals protected/tested)): 0%
- responders at 100 mg/kg ([3]; 0.5 h, read-out: scMET 100 0.5 h (animals protected/tested)): 0%
- responders at 300 mg/kg ([3]; 0.4 h, read-out: scMET 300 0.4 h (animals protected/tested)): 0%
- responders at 300 mg/kg ([3]; 0.5 h, read-out: scMET 300 0.5 h (animals protected/tested)): 0%
- TOX 30 0.5 h (animals toxic/tested) ([4]; 30 mg/kg, 0.5 h): 0/4
- TOX 30 4 h (animals toxic/tested) ([4]; 30 mg/kg, 4 h): 0/2
- TOX 100 0.5 h (animals toxic/tested) ([4]; 100 mg/kg, 0.5 h): 1/8
- TOX 100 4 h (animals toxic/tested) ([4]; 100 mg/kg, 4 h): 0/4
- TOX 300 0.5 h (animals toxic/tested) ([4]; 300 mg/kg, 0.5 h): 3/4
- TOX 300 4 h (animals toxic/tested) ([4]; 300 mg/kg, 4 h): 1/2
- Ki ([5]; D1 dopamine receptor, [3H]SCH23390 0.3 nM, Cheng-Prusoff): 6.23 µM
- inhibition of the D1 dopamine receptor ([5]; radioligand competition binding): significant inhibition

Compound: CC1(C)O[C@@H]2[C@@H](CO[C@@]3(COS(N)(=O)=O)OC(C)(C)O[C@@H]23)O1 [topiramate]
- anticonvulsant activity [2]: greater anticonvulsant activity
